Laboratory results from patent US20160183527A1, “FUNGICIDAL COMPOSITIONS” (Dow AgroSciences LLC, priority 2014, published 2016).

What was measured:
Format in all cases: physicochemical
[1] = Solubility of Compound A and prothioconazole in benzyl acetate/AMD810 blends at 10° C. (HPLC); conditions: both actives saturated
Procedure: A study of the Compound A and prothioconazole solubility in blends of benzyl acetate/AMD810 was conducted. To each solvent blend both actives were added until each was saturated and the resulting mixtures were then stored at 10° C. until equilibrium was obtained. Aliquots of the supernatant layer were taken from each sample, filtered (0.45 μm mesh) and analyzed by HPLC to determine the solution concentration of each active in the blends.

[2] = Approximate (relative) solubility of active ingredients in organic solvents at ambient temperature; conditions: 0.2 g of Compound A mixed with 1.38 g of cyclohexanone
Procedure: The approximate solubility of Compound A was determined by mixing a known mass of the active ingredient with an increasing mass of each solvent at ambient temperature. […] The solubility of Compound A in the solvents used in this screening procedure was generally classified within the following concentration ranges: […]

[3] = Accelerated storage stability, 54° C. for 2 weeks (HPLC); conditions: 2 weeks at 54° C.
Procedure: Sample 1 was stored at 54° C. for 2 weeks in a closed container.
Sample 6 was stored at 54° C. for 2 weeks in a closed container.
Sample 7 was stored at 54° C. for 2 weeks in a closed container.

COc1ccnc(C(=O)N[C@H]2COC(=O)[C@H](Cc3ccccc3)[C@@H](OC(=O)C(C)C)[C@H](C)OC2=O)c1OCOC(=O)C(C)C [Compound A, propanoic acid, 2-methyl-, [[4-methoxy-2-[[[(3S,7R,8R,9S)-9-methyl-8-(2-methyl-1-oxopropoxy)-2,6-dioxo-7-(phenylmethyl)-1,5-dioxonan-3-yl]amino]carbonyl]-3-pyridinyl]oxy]methyl ester]
Compound A Solubility at 10° C. ([1]; benzyl acetate 0 wt % in benzyl acetate/AMD810 blend): 3.3 % w/w | Compound A Solubility at 10° C. ([1]; benzyl acetate 20 wt % in benzyl acetate/AMD810 blend): 4.3 % w/w | Compound A Solubility at 10° C. ([1]; benzyl acetate 40 wt % in benzyl acetate/AMD810 blend): 6.5 % w/w | Compound A Solubility at 10° C. ([1]; benzyl acetate 60 wt % in benzyl acetate/AMD810 blend): 11.0 % w/w | Compound A Solubility at 10° C. ([1]; benzyl acetate 80 wt % in benzyl acetate/AMD810 blend): 12.0 % w/w | Compound A content of clear solution in cyclohexanone [2]: 12.6 % w/w | Compound A after Storage (% retention) ([3]; composition wt %: Compound A 3.4, AMD 810 96.0, third solvent none): 49^ % retention | Compound A after Storage (% retention) ([3]; composition wt %: Compound A 4.9, benzyl acetate 94.1, third solvent none): 85^ % retention | Compound A after Storage (% retention) ([3]; composition wt %: Compound A 12.0, cyclohexanone 85.7): 96^ % retention | Compound A after Storage (% retention) ([3]; wt %: Compound A 4.9, pyraclostrobin 6.3, benzyl acetate 41.2, AMD 810 22.2, cyclohexanone 9.8): 98^ % retention | Compound A after Storage (% retention) ([3]; wt %: Compound A 5.0, pyraclostrobin 6.4, benzyl acetate 40.9, AMD 810 22.0, 2-ethyl hexanol 10.0): 95^ % retention | Compound A after Storage (% retention) ([3]; wt %: Compound A 7.7, pyraclostrobin 9.8, benzyl acetate 37.1, AMD 810 20.0, cyclohexanone 9.6): 97^ % retention | Compound A after Storage (% retention) ([3]; wt %: Compound A 7.8, pyraclostrobin 9.9, benzyl acetate 36.7, AMD 810 19.8, 2-ethyl hexanol 9.7): 97^ % retention
